Laboratory results: patent US20190055279A1, “NOVEL POLYPEPTIDES WITH IMPROVED PROTEOLYTIC STABILITY, AND METHODS OF PREPARING AND USING SAME” (TUFTS UNIVERSITY, priority 2015, published 2019)

Molecular target: T1, GLP-1R (Homo sapiens, UniProt P43220)
T1 construct: expressed in transfected cells; host or cells: HEK293
Assay: GLP-1R agonist assay: CRE6x-LUC luciferase reporter in transiently transfected HEK293 cells
Assay type: cell-based
Conditions: not given
Procedure: Briefly, HEK293 cells were plated at a density of 2−3×10^3 cells per well onto clear-bottom, white, 96-well plates and grown for 2 days to ˜80% confluency. Cells were then transiently transfected by using Lipofectamine reagent (Invitrogen) with cDNA encoding (1) a GPCR (or empty expression vector); (ii) a cAMP-responsive element-luciferase reporter gene (CRE6X-luc), and (iv) β-galactosidase as a control. Cells were incubated with or without the selected peptide agonist in serum-free medium for 6 h. Luciferase activity was quantified by using Steadylite reagent (Perkin-Elmer). A β-galactosidase assay then was performed after adding the enzyme substrate 2-nitrophenyl β-d-galactopyranoside.
Cellular assays for receptor binding and intracellular signaling were carried out with the compounds of the invention. Briefly, HEK 293 cells were transiently transfected with cDNAs encoding (i) GLP-1R (or the empty expression vector), (ii) the CRE6x-LUC reporter gene (which senses cAMP production triggered by receptor stimulation), and (iii) β-galactosidase (as a control for transfection efficiency). After transfection for 24 h, cells were incubated with a peptide at various concentrations (or control/blank) in serum-free medium for 6 h. The cells were then lysed, SteadyLite reagent (PerkinElmer) is added, and luciferase activity is measured in a TopCount NXT HTS plate luminometer. After further incubation with a chromogenic substrate (2-nitrophenyl β-D-galactopyranoside), optical density at 420 nm is determined by spectrophotometry, as a control to correct for interwell transfection variability. Sigmoidal concentration-response curves of GLP-1R ligand activity is calculated to determine potency.
Plotting concentration versus the luciferase activity yielded quantitative parameters for combined binding (potency) and signaling (efficacy) in a single step. […] DPP4 treated peptides: 10 μl of 0.26 mM peptide were incubated with 2 μL DPP4 in buffer ±DMSO for 18 hrs. Control peptides: 10 μl of 0.26 mM peptide was added to buffer ±DMSO. The final DMSO concentration was the same for all peptides and all peptides were diluted to 0.26 mM concentrations for the DPP4 assay.

T1 sequence (P43220 24-463, species assumed): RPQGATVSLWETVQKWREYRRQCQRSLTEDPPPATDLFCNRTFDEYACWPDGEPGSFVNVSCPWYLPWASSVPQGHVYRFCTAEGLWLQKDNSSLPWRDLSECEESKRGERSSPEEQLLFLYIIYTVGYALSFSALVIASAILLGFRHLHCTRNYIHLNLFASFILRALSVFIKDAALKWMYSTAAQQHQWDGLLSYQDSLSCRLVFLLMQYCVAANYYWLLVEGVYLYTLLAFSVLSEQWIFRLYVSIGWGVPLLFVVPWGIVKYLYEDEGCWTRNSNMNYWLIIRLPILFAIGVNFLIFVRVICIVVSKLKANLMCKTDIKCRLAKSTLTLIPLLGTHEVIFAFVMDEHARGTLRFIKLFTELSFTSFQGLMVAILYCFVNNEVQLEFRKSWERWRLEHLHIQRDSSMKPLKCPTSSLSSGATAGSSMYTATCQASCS

`CC[C@H](C)[C@H](NC(=O)[C@H](Cc1ccccc1)NC(=O)[C@H](CCC(=O)O)NC(=O)[C@H](CCCCN)NC(=O)[C@H](C)NC(=O)[C@H](C)NC(=O)[C@H](CCC(N)=O)NC(=O)CNC(=O)[C@H](CCC(=O)O)NC(=O)[C@H](CC(C)C)NC(=O)[C@H](Cc1ccc(O)cc1)NC(=O)[C@H](CO)NC(=O)[C@H](CO)NC(=O)[C@@H](NC(=O)[C@H](CC(=O)O)NC(=O)[C@H](CO)NC(=O)[C@@H](NC(=O)[C@H](Cc1ccccc1)NC(=O)[C@@H](NC(=O)CNC(=O)[C@H](CCC(=O)O)NC(=O)[C@H](C)NC(=O)[C@H](Cc1c[nH]cn1)NC[C@H](C)N)[C@@H](C)O)[C@@H](C)O)C(C)C)C(=O)N[C@@H](C)C(=O)N[C@@H](Cc1c[nH]c2ccccc12)C(=O)N[C@@H](CC(C)C)C(=O)N[C@H](C(=O)N[C@@H](CCCCN)C(=O)NCC(=O)N[C@@H](CCCNC(=N)N)C(N)=O)C(C)C` was tested, and the EC50 was 2.6 pM.

Same assay, conditions: Receptor GLP-1R; agonist potency; read-out: EC50

Going from `CCN[C@@H](Cc1c[nH]cn1)C(=O)N[C@@H](C)C(=O)N[C@@H](CCC(=O)O)C(=O)NCC(=O)N[C@H](C(=O)N[C@@H](Cc1ccccc1)C(=O)N[C@H](C(=O)N[C@@H](CO)C(=O)N[C@@H](CC(=O)O)C(=O)N[C@H](C(=O)N[C@@H](CO)C(=O)N[C@@H](CO)C(=O)N[C@@H](Cc1ccc(O)cc1)C(=O)N[C@@H](CC(C)C)C(=O)N[C@@H](CCC(=O)O)C(=O)NCC(=O)N[C@@H](CCC(N)=O)C(=O)N[C@@H](C)C(=O)N[C@@H](C)C(=O)N[C@@H](CCCCN)C(=O)N[C@@H](CCC(=O)O)C(=O)N[C@@H](Cc1ccccc1)C(=O)N[C@H](C(=O)N[C@@H](C)C(=O)N[C@@H](Cc1c[nH]c2ccccc12)C(=O)N[C@@H](CC(C)C)C(=O)N[C@H](C(=O)N[C@@H](CCCCN)C(=O)NCC(=O)N[C@@H](CCCNC(=N)N)C(N)=O)C(C)C)[C@@H](C)CC)C(C)C)[C@@H](C)O)[C@@H](C)O` to `CC[C@H](C)[C@H](NC(=O)[C@H](Cc1ccccc1)NC(=O)[C@H](CCC(=O)O)NC(=O)[C@H](CCCCN)NC(=O)[C@H](C)NC(=O)[C@H](C)NC(=O)[C@H](CCC(N)=O)NC(=O)CNC(=O)[C@H](CCC(=O)O)NC(=O)[C@H](CC(C)C)NC(=O)[C@H](Cc1ccc(O)cc1)NC(=O)[C@H](CO)NC(=O)[C@H](CO)NC(=O)[C@@H](NC(=O)[C@H](CC(=O)O)NC(=O)[C@H](CO)NC(=O)[C@@H](NC(=O)[C@H](Cc1ccccc1)NC(=O)[C@@H](NC(=O)CNC(=O)[C@H](CCC(=O)O)NC(=O)[C@H](C)NC(=O)[C@H](Cc1c[nH]cn1)NCC(C)C)[C@@H](C)O)[C@@H](C)O)C(C)C)C(=O)N[C@@H](C)C(=O)N[C@@H](Cc1c[nH]c2ccccc12)C(=O)N[C@@H](CC(C)C)C(=O)N[C@H](C(=O)N[C@@H](CCCCN)C(=O)NCC(=O)N[C@@H](CCCNC(=N)N)C(N)=O)C(C)C` [drawing 47], the EC50 falls from 6.4 pM to 3.7 pM (1.7-fold). The second is the more potent here.

`CC[C@H](C)[C@H](NC(=O)[C@H](Cc1ccccc1)NC(=O)[C@H](CCC(=O)O)NC(=O)[C@H](CCCCN)NC(=O)[C@H](C)NC(=O)[C@H](C)NC(=O)[C@H](CCC(N)=O)NC(=O)CNC(=O)[C@H](CCC(=O)O)NC(=O)[C@H](CC(C)C)NC(=O)[C@H](Cc1ccc(O)cc1)NC(=O)[C@H](CO)NC(=O)[C@H](CO)NC(=O)[C@@H](NC(=O)[C@H](CC(=O)O)NC(=O)[C@H](CO)NC(=O)[C@@H](NC(=O)[C@H](Cc1ccccc1)NC(=O)[C@@H](NC(=O)CNC(=O)[C@H](CCC(=O)O)NC(=O)[C@H](C)NC(=O)[C@H](Cc1c[nH]cn1)NC(C)C)[C@@H](C)O)[C@@H](C)O)C(C)C)C(=O)N[C@@H](C)C(=O)N[C@@H](Cc1c[nH]c2ccccc12)C(=O)N[C@@H](CC(C)C)C(=O)N[C@H](C(=O)N[C@@H](CCCCN)C(=O)NCC(=O)N[C@@H](CCCNC(=N)N)C(N)=O)C(C)C` and `CC[C@H](C)[C@H](NC(=O)[C@H](Cc1ccccc1)NC(=O)[C@H](CCC(=O)O)NC(=O)[C@H](CCCCN)NC(=O)[C@H](C)NC(=O)[C@H](C)NC(=O)[C@H](CCC(N)=O)NC(=O)CNC(=O)[C@H](CCC(=O)O)NC(=O)[C@H](CC(C)C)NC(=O)[C@H](Cc1ccc(O)cc1)NC(=O)[C@H](CO)NC(=O)[C@H](CO)NC(=O)[C@@H](NC(=O)[C@H](CC(=O)O)NC(=O)[C@H](CO)NC(=O)[C@@H](NC(=O)[C@H](Cc1ccccc1)NC(=O)[C@@H](NC(=O)CNC(=O)[C@H](CCC(=O)O)NC(=O)[C@H](C)NC(=O)[C@H](Cc1c[nH]cn1)NCc1ccccc1)[C@@H](C)O)[C@@H](C)O)C(C)C)C(=O)N[C@@H](C)C(=O)N[C@@H](Cc1c[nH]c2ccccc12)C(=O)N[C@@H](CC(C)C)C(=O)N[C@H](C(=O)N[C@@H](CCCCN)C(=O)NCC(=O)N[C@@H](CCCNC(=N)N)C(N)=O)C(C)C` [drawing 51] are within 1.5-fold of each other in EC50: 4.1 pM for the first, 4.4 pM for the second.

Going from `CC[C@H](C)[C@H](NC(=O)[C@H](Cc1ccccc1)NC(=O)[C@H](CCC(=O)O)NC(=O)[C@H](CCCCN)NC(=O)[C@H](C)NC(=O)[C@H](C)NC(=O)[C@H](CCC(N)=O)NC(=O)CNC(=O)[C@H](CCC(=O)O)NC(=O)[C@H](CC(C)C)NC(=O)[C@H](Cc1ccc(O)cc1)NC(=O)[C@H](CO)NC(=O)[C@H](CO)NC(=O)[C@@H](NC(=O)[C@H](CC(=O)O)NC(=O)[C@H](CO)NC(=O)[C@@H](NC(=O)[C@H](Cc1ccccc1)NC(=O)[C@@H](NC(=O)CNC(=O)[C@H](CCC(=O)O)NC(=O)[C@H](C)NC(=O)[C@H](Cc1c[nH]cn1)NCC12CC3CC(CC(C3)C1)C2)[C@@H](C)O)[C@@H](C)O)C(C)C)C(=O)N[C@@H](C)C(=O)N[C@@H](Cc1c[nH]c2ccccc12)C(=O)N[C@@H](CC(C)C)C(=O)N[C@H](C(=O)N[C@@H](CCCCN)C(=O)NCC(=O)N[C@@H](CCCNC(=N)N)C(N)=O)C(C)C` to `CC[C@H](C)[C@H](NC(=O)[C@H](Cc1ccccc1)NC(=O)[C@H](CCC(=O)O)NC(=O)[C@H](CCCCN)NC(=O)[C@H](C)NC(=O)[C@H](C)NC(=O)[C@H](CCC(N)=O)NC(=O)CNC(=O)[C@H](CCC(=O)O)NC(=O)[C@H](CC(C)C)NC(=O)[C@H](Cc1ccc(O)cc1)NC(=O)[C@H](CO)NC(=O)[C@H](CO)NC(=O)[C@@H](NC(=O)[C@H](CC(=O)O)NC(=O)[C@H](CO)NC(=O)[C@@H](NC(=O)[C@H](Cc1ccccc1)NC(=O)[C@@H](NC(=O)CNC(=O)[C@H](CCC(=O)O)NC(=O)[C@H](C)NC(=O)[C@H](Cc1c[nH]cn1)NCc1ccc(O)cc1)[C@@H](C)O)[C@@H](C)O)C(C)C)C(=O)N[C@@H](C)C(=O)N[C@@H](Cc1c[nH]c2ccccc12)C(=O)N[C@@H](CC(C)C)C(=O)N[C@H](C(=O)N[C@@H](CCCCN)C(=O)NCC(=O)N[C@@H](CCCNC(=N)N)C(N)=O)C(C)C`, the EC50 falls from 3.9 pM to 1 pM (3.9-fold). The second is the more potent here.

First: CC[C@H](C)[C@H](NC(=O)[C@H](Cc1ccccc1)NC(=O)[C@H](CCC(=O)O)NC(=O)[C@H](CCCCN)NC(=O)[C@H](C)NC(=O)[C@H](C)NC(=O)[C@H](CCC(N)=O)NC(=O)CNC(=O)[C@H](CCC(=O)O)NC(=O)[C@H](CC(C)C)NC(=O)[C@H](Cc1ccc(O)cc1)NC(=O)[C@H](CO)NC(=O)[C@H](CO)NC(=O)[C@@H](NC(=O)[C@H](CC(=O)O)NC(=O)[C@H](CO)NC(=O)[C@@H](NC(=O)[C@H](Cc1ccccc1)NC(=O)[C@@H](NC(=O)CNC(=O)[C@H](CCC(=O)O)NC(=O)[C@H](C)NC(=O)[C@H](Cc1c[nH]cn1)NCc1ccc(C2(C(F)(F)F)N=N2)cc1)[C@@H](C)O)[C@@H](C)O)C(C)C)C(=O)N[C@@H](C)C(=O)N[C@@H](Cc1c[nH]c2ccccc12)C(=O)N[C@@H](CC(C)C)C(=O)N[C@H](C(=O)N[C@@H](CCCCN)C(=O)NCC(=O)N[C@@H](CCCNC(=N)N)C(N)=O)C(C)C
Second: CC[C@H](C)[C@H](NC(=O)[C@H](Cc1ccccc1)NC(=O)[C@H](CCC(=O)O)NC(=O)[C@H](CCCCN)NC(=O)[C@H](C)NC(=O)[C@H](C)NC(=O)[C@H](CCC(N)=O)NC(=O)CNC(=O)[C@H](CCC(=O)O)NC(=O)[C@H](CC(C)C)NC(=O)[C@H](Cc1ccc(O)cc1)NC(=O)[C@H](CO)NC(=O)[C@H](CO)NC(=O)[C@@H](NC(=O)[C@H](CC(=O)O)NC(=O)[C@H](CO)NC(=O)[C@@H](NC(=O)[C@H](Cc1ccccc1)NC(=O)[C@@H](NC(=O)CNC(=O)[C@H](CCC(=O)O)NC(=O)[C@H](C)NC(=O)[C@H](Cc1c[nH]cn1)NC[C@@H](O)[C@@H](O)[C@H](O)[C@H](O)CO)[C@@H](C)O)[C@@H](C)O)C(C)C)C(=O)N[C@@H](C)C(=O)N[C@@H](Cc1c[nH]c2ccccc12)C(=O)N[C@@H](CC(C)C)C(=O)N[C@H](C(=O)N[C@@H](CCCCN)C(=O)NCC(=O)N[C@@H](CCCNC(=N)N)C(N)=O)C(C)C
The EC50 of the first is 26-fold lower: 123 pM for the first, 3200 pM for the second.
